Source: patent publication US6465494B1, “Methods for treatment of cystic fibrosis” (Cell Pathways, Inc., priority 2001, dated 2002)
Structures can show the parent of a compound that is named as a salt.

Assays:
PDE1 = assay: PDE inhibition, similar protocols: PDE1; type: biochemical
[1] = acute toxicity study in rats; conditions: rat, in vivo; for LD50: rats
[2] = acute and seven-dose toxicity in dogs (capsules); conditions: dog, in vivo
Procedure: Therefore, these dogs were subsequently administered seven consecutive doses of 1000 mg/kg/day.

[3] = seven-day dose-range finding study in rats; type: in vivo; conditions: 7 days
28-day study in rats = type: in vivo
Procedure: A 28-day study in rats was also carried out at 0, 50, 500 and 2000 mg/kg/day.

[4] = 91-day long-term safety assessment study in rats; type: in vivo
From the text: These changes were not associated with any gross clinical abnormality.

[5] = system: TNF-α secreted by TPA-induced U937 cells; assay: TNF-α immunoassay on culture media of TPA-treated U937 cells; type: cell-based
Procedure: One function of macrophages is to modulate the activity of other inflammatory cells through various cytokine molecules.
TNF-αlevels in the cell culture media were determined by using the TNF-α Immunoassay from R&D Systems (Cat. # DTA50) according to the manufacturer's protocol.

PDE5 = PDE5 (Homo sapiens, UniProt O76074); assay: cGMP PDE inhibition, 3H-cGMP hydrolysis: PDE5; type: biochemical; set-up: partially purified cGMP-specific PDE isolated from HT-29 cells; endogenous in cells; host or cells: HT-29
Procedure: (Thompson, W. J., Teraski, W. L., Epstein, P. M., Strada, S. J., Advances in Cyclic Nucleotide Research, 10:69-92, 1979, which is incorporated herein by reference). […] The mixture is incubated at 30° C. for 10 minutes with isolated PDE2 and/or PDE5. Reactions are terminated, for example, by boiling the reaction mixture for 75 seconds. After cooling on ice, 100 μl of 0.5 mg/mL snake venom (O. Hannah venom available from Sigma) is added and incubated for 10 minutes at 30° C. This reaction is then terminated by the addition of an alcohol, e.g. 1 mL of 100% methanol. Assay samples are applied to 1 mL Dowex 1-X8 column; and washed with 1 mL of 100% methanol. The amount of radioactivity in the breakthrough and the wash from the column is combined and measured with a scintillation counter. The degree of phosphodiesterase inhibition is determined by calculating the amount of radioactivity in drug-treated reactions and comparing against a control sample (a reaction mixture lacking the tested compound but with drug solvent).
Compounds of this invention are also PDE2 and PDE5 inhibitors as taught in part U.S. patent application Ser. No. 09/046,739 filed Mar. 24, 1998. […] The amount of radioactivity in the breakthrough and the wash from the columns in then measured with a scintillation counter. […]

[6] = 28 days, 50, 500 and 2000 mg/kg/day

CC1=C(CC(=O)NCc2ccccc2)c2cc(F)ccc2/C1=C\c1ccncc1 [Example 38, (Z)-5-fluoro-2-methyl-(4-pyridylidene)-3-(N-benzyl)indenylacetamide hydrochloride]
IC50 (PDE1): 3 µM
acute toxicity on a single-dose basis [1]: not acutely toxic
body weight gain ([1]; ip, 1000 mg/kg): reduced body weight gain
necropsy finding ([1]; ip, 1000 mg/kg): mesenteric adhesions seen in some animals
LD50 ([1]; ip, 1000 mg/kg, intraperitoneal, read-out: intraperitoneal LD50): > 1000 mg/kg
body weight gains ([1]; po, 2000 mg/kg): slightly reduced
LD50 ([1]; oral, read-out: oral LD50): > 2000 mg/kg
LD50 ([2]; both sexes, 1000 mg/kg, dogs, oral): > 1000 mg/kg
signs of toxicity ([2]; 1000 mg/kg): no signs of toxicity
signs of drug-related effects ([2]; 1000 mg/kg/day): At no time in either dosing phase were any obvious signs of drug-related effects observed
observable signs of toxicity ([3]; 50 mg/kg/day): no observable signs of toxicity
treatment-related effects ([3]; 500 mg/kg/day): limited to an increase in absolute and relative liver weights in female rats
treatment-related effects ([3]; 2000 mg/kg/day): labored breathing and/or abnormal respiratory sounds, decreased weights gains and food consumption in male rats, and increased liver weights in female rats
hematological, blood chemistry and microscopic pathology changes ([3]; any dose level (50, 500, 2000 mg/kg/day)): No hematological or blood chemistry changes nor any microscopic a pathology changes
macroscopic tissue changes at necropsy (28-day study in rats; 28 days): No macroscopic tissue changes
histopathological evaluation of tissues (28-day study in rats; 28 days, 500 mg/kg/day): one female at 500 mg/kg/day had increased mitotic figures in the thyroid gland
liver weights (28-day study in rats; 28 days, 2000 mg/kg/day): statistically significant increase in liver weights
thyroid weights (28-day study in rats; 28 days, 2000 mg/kg/day): statistically significant increases in thyroid weights
body weight changes, ophthalmoscopic examinations, hematological and blood chemistry values, urinalysis (28-day study in rats; [6]): unremarkable
clinical observations (28-day study in rats; [6]): no abnormal clinical observations
liver and thyroid weight increases at the lower doses (28-day study in rats; 28 days, 50 and 500 mg/kg/day): not statistically significant
histopathological evaluation of tissues (28-day study in rats; 28 days, small number of animals at 2000 mg/kg/day): traces of follicular cell hypertrophy, increased numbers of mitotic figures (suggestive of possible cell proliferation) in the thyroid gland and mild centrilobular hypertrophy in the liver
clinical biochemistry and hematology ([4]; 91 days): no changes in clinical biochemistry and hematology were evident
microscopic finding, follicular cells ([4]; 91 days, 500 mg/kg/day): follicular cell hypertrophy
microscopic finding, kidneys ([4]; 91 days, 200 and 500 mg/kg/day): increase in accumulation of hyalin droplets in the kidneys
microscopic finding, liver ([4]; 91 days, 200 and 500 mg/kg/day): slight hepatocellular hypertrophy
liver and thyroid/parathyroid weights ([4]; 91 days, males and females at 200 and 500 mg/kg/day): dose-related trend to increased liver and thyroid/parathyroid weights
toxicological effects overall ([4]; oral, 91 consecutive days, 50, 200 and 500 mg/kg/day): did not produce any major toxicological effects
level of TNF-α secreted into cell culture media [5]: significantly reduced
IC50 (PDE5): 4 µM
